Measured values taken from ChEMBL document CHEMBL5236594, “Novel α7 nicotinic acetylcholine receptor modulators as potential antitussive agents” (Bioorg Med Chem Lett, 2023).
The source made the active and inactive calls. The calls are words filed in the database; no cut-off is given here.

Experiments:
[1] = target: Neuronal acetylcholine receptor subunit alpha-7 (Homo sapiens, UniProt P36544); assay: Binding affinity to alpha7 nAChR (unknown origin) assessed as dissociation constant
[2] = target: Neuronal acetylcholine receptor; alpha3/beta4 (Homo sapiens, UniProt P30926+P32297); assay: Binding affinity to alpha3beta4 nAChR (unknown origin) assessed as dissociation constant; type: protein-complex assay
Sequence of Neuronal acetylcholine receptor; alpha3/beta4 (P30926 whole entry): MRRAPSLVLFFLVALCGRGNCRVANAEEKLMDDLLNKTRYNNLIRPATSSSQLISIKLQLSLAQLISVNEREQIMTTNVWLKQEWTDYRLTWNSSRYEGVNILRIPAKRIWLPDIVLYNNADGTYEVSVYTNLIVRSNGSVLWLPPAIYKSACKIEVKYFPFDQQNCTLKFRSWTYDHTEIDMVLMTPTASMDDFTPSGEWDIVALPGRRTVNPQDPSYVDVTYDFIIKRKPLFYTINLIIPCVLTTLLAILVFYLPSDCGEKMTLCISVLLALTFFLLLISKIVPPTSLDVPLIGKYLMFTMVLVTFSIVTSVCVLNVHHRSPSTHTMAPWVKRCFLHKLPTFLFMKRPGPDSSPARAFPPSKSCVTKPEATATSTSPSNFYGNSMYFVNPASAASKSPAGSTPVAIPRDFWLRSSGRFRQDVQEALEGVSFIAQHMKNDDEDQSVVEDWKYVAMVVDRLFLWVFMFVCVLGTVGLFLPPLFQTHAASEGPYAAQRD
Sequence of Neuronal acetylcholine receptor; alpha3/beta4 (P32297 whole entry): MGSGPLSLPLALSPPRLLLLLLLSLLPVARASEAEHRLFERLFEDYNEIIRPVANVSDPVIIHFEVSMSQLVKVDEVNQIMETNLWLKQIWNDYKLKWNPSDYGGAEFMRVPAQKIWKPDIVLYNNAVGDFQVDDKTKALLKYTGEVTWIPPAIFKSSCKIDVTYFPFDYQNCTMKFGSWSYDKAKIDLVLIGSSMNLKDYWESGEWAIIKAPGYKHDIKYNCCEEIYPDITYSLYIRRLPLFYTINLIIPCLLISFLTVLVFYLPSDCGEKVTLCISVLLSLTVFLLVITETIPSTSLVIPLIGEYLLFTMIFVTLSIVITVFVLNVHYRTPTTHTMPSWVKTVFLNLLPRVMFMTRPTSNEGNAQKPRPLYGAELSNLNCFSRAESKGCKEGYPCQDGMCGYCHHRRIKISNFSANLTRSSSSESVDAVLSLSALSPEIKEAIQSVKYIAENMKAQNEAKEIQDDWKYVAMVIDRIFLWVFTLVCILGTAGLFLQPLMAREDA

[3] = target: Neuronal acetylcholine receptor; alpha4/beta2 (Homo sapiens, UniProt P17787+P43681); assay: Binding affinity to alpha4beta2 nAChR (unknown origin) assessed as dissociation constant; type: protein-complex assay
Sequence of Neuronal acetylcholine receptor; alpha4/beta2 (P17787 whole entry): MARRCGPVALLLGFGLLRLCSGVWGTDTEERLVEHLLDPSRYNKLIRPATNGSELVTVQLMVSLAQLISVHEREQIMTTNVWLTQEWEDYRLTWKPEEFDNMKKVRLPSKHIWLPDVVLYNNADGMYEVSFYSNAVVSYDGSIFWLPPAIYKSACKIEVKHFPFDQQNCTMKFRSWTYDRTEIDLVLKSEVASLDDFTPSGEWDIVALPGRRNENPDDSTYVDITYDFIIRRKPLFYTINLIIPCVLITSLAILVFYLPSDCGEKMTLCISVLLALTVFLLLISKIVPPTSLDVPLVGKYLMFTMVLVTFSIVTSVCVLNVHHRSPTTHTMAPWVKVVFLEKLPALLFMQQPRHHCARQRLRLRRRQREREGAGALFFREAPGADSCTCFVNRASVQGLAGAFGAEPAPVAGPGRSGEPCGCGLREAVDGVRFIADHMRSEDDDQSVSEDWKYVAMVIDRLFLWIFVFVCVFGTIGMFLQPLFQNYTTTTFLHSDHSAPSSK
Sequence of Neuronal acetylcholine receptor; alpha4/beta2 (P43681 whole entry): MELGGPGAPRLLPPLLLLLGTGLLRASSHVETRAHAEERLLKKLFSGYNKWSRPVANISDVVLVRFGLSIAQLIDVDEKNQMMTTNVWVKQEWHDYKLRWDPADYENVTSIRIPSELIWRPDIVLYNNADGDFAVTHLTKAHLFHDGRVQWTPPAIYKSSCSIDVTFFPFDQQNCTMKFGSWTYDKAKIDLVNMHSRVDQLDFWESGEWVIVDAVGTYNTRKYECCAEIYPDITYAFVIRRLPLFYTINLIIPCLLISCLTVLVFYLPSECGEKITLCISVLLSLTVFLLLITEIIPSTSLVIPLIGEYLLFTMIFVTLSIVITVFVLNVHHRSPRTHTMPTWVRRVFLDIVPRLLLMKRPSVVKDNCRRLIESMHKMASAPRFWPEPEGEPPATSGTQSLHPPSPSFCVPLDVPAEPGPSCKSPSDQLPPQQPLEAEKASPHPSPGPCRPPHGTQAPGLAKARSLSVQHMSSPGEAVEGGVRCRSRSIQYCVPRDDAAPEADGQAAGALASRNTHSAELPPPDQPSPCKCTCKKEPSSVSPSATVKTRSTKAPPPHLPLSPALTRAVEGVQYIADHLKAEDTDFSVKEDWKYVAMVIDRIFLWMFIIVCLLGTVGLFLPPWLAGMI

[4] = tested on: Cavia porcellus; assay: Anti-tussive activity in guniea pig cough model assessed as reduction in cumulative number of coughs at 30 mg/kg, ip; type: functional, organism-based
[5] = tested on: Cavia porcellus; assay: Anti-tussive activity in guniea pig cough model assessed as suppression of cough frequency at 1 to 9.5 mg/kg, ip; type: functional, organism-based; details: dose 1-9.5 mg/kg
[6] = tested on: Cavia porcellus; assay: Anti-tussive activity in guniea pig cough model assessed as reduction in cumulative number of coughs at 0.4 mg/kg, INH; type: functional, organism-based
[7] = tested on: Cavia porcellus; assay: Anti-tussive activity in guniea pig cough model assessed as reduction in cumulative number of coughs at 9.5 mg/kg, po; type: functional, organism-based
[8] = tested on: Cavia porcellus; assay: Anti-tussive activity in guniea pig cough model assessed as reduction in cough inhibition period at 0.1 to 0.4 mg/kg, INH; type: functional, organism-based; details: dose 0.1-0.4 mg/kg
[9] = Half life in ip dosed guinea pig; type: ADME, organism-based, Cavia porcellus; details: in vivo
[10] = Half life in INSULFFLATION dosed guinea pig; type: ADME, organism-based, Cavia porcellus; details: in vivo, inhaled or intranasal
[11] = tested on: Cavia porcellus; assay: Anti-tussive activity in guniea pig cough model assessed as reduction in cough inhibition period at 1 to 9.5 mg/kg, ip; type: functional, organism-based; details: dose 1-9.5 mg/kg
[12] = tested on: Cavia porcellus; assay: Anti-tussive activity in guniea pig cough model assessed as reduction in cumulative number of coughs at 1 to 9.5 mg/kg, ip; type: functional, organism-based; details: dose 1-9.5 mg/kg
[13] = Half life in po dosed guinea pig; type: ADME, organism-based, Cavia porcellus; details: in vivo
[14] = tested on: Cavia porcellus; assay: Anti-tussive activity in guniea pig cough model assessed as reduction in cumulative number of coughs at 1 to 2 mg/kg, IT; type: functional, organism-based; details: dose 1-2 mg/kg
[15] = tested on: Cavia porcellus; assay: Anti-tussive activity in citric acid-induced guniea pig cough model assessed as reduction in cough count at 30 mg/kg, ip; type: functional, organism-based
[16] = tested on: Cavia porcellus; assay: Anti-tussive activity in guniea pig cough model assessed as reduction in cumulative number of coughs at 3 to 30 mg/kg, ip; type: functional, organism-based; details: dose 3-30 mg/kg
[17] = tested on: Cavia porcellus; assay: Anti-tussive activity in guniea pig cough model assessed as suppression of cough frequency at 3 to 30 mg/kg, ip; type: functional, organism-based; details: dose 3-30 mg/kg

Sequence of Neuronal acetylcholine receptor subunit alpha-7 (P36544 whole entry): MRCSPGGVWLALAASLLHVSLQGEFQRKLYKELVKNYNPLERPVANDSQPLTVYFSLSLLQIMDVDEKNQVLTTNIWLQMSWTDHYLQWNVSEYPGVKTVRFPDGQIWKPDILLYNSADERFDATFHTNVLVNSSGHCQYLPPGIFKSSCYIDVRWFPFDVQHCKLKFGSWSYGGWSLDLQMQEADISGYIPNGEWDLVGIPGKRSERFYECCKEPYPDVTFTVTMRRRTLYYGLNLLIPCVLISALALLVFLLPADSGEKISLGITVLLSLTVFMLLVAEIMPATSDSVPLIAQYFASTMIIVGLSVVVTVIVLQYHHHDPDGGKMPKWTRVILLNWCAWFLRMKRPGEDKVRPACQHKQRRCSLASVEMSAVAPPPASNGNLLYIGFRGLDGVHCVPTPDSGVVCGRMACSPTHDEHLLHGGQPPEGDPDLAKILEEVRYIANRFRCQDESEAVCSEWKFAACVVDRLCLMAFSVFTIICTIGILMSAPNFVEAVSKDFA

SMILES	Ki [1] [nM]	Ki [2] [nM]	Ki [3] [nM]	further results
c1cncc(C[C@H]2[C@H](Oc3ccc(-c4ccc5[nH]ccc5c4)cn3)C3CCN2CC3)c1	58	780	470	
COc1ccc2c3c1O[C@H]1[C@@H](O)C=C[C@H]4[C@@H](C2)N(C)CC[C@@]341				Activity [4]: Active
c1cncc(C[C@@H]2[C@@H](Oc3nnc(-c4ccc5[nH]ccc5c4)s3)C3CCN2CC3)c1 (relative stereo)		440	220	Activity [5]: Active; Activity [6]: Active; Activity [7]: inactive; Activity [8]: Active; half-life [9]: 1.7 h; half-life [10]: 3.2 h; Activity [11]: Active; Activity [12]: Active; half-life [13]: 1.5 h; Activity [14]: Active
c1cncc(C[C@@H]2[C@@H](Oc3ccc4ccccc4n3)C3CCN2CC3)c1 (relative stereo)		800	140	
c1cncc(C[C@@H]2[C@H](Oc3ccc(-c4ccc5[nH]ccc5c4)nn3)C3CCN2CC3)c1 (relative stereo)		200	17.3	
c1cncc(C[C@H]2[C@H](Oc3cnc(-c4ccc5[nH]ccc5c4)cn3)C3CCN2CC3)c1 (relative stereo)	240	400	230	
c1cncc(C[C@H]2[C@H](Oc3ccc(-c4ccc5[nH]ccc5c4)nn3)C3CCN2CC3)c1 (relative stereo)	1.4	730	73	Activity [15]: Active
c1ccc(-c2ccc(O[C@@H]3C4CCN(CC4)[C@H]3Cc3cccnc3)nn2)cc1 (relative stereo)	100	80	120	
Nc1nc2ccc(-c3ccc(O[C@H]4C5CCN(CC5)[C@@H]4Cc4cccnc4)nn3)cc2s1 (relative stereo)	18.8	1080	50	
c1cncc(C[C@@H]2[C@@H](Oc3ccc(-c4ccc[nH]4)nn3)C3CCN2CC3)c1 (relative stereo)	42	730	200	Activity [16]: inactive; Activity [17]: Active
c1cncc(C[C@@H]2[C@@H](Oc3cc4ccccc4cn3)C3CCN2CC3)c1 (relative stereo)	1000	2150	1870	
c1ccc(-c2nnc(O[C@H]3C4CCN(CC4)[C@@H]3Cc3cccnc3)s2)cc1 (relative stereo)		340	330	
